Tests used:
[1] = tested on: HeLa (cervical cancer); test: MTT cell viability assay, HeLa; assay type: cell-based, human; details: for IC50: Homo sapiens, HeLa, MTT assay, 72 h of incubation
Procedure: (§1) Analysis was performed using an MTT assay after 72 h of incubation.
(§2) All chemicals, if not stated otherwise, were obtained from Sigma–Aldrich (St. Louis, MO, USA). The HCT-116 cell line was purchased from ATCC (ATCC-No: CCL-247), while the MCF-7, HeLa and HaCaT cell lines were purchased from Cell Lines Services (Eppelheim, Germany). Cells were cultured in Dulbecco’s modified Eagle’s medium (DMEM) supplemented with 10% fetal bovine serum, 2 mM glutamine, 100 units/mL penicillin and 100 µg/mL streptomycin. Cultures were maintained in a humidified atmosphere with 5% carbon dioxide at 37 °C in an incubator (Heraceus, HeraCell).
(§3) Cell viability was examined using the MTT [3-(4,5-dimethylthiazol-2-yl)-2,5-diphenyltetrazolium bromide] assay. Cells were seeded in 96-well plates at a density of 3 × 10^3 cells/well and treated for 72 h with the tested compounds in the concentration range of 1–100 µM. Then, MTT (0.5 mg/mL) was added to the medium and cells were further incubated for 2 h at 37 °C. In the next stage, cells were lysed with DMSO and the absorbance of the formazan solution was measured at 550 nm with a plate reader (1420 multilabel counter, Victor, Jügesheim, Germany). The experiment was performed in triplicate. Values are expressed as the mean ± SD of at least three independent experiments.

[2] = tested on: HCT-116 (colon cancer); test: MTT cell viability assay, HCT-116; assay type: cell-based, human; details: for IC50: Homo sapiens, HCT-116, 72 h, MTT assay, 72 h of incubation
Procedure: as §1, §2, §3

[3] = tested on: MCF-7 (breast cancer); test: MTT cell viability assay, MCF-7; assay type: cell-based, human; details: for IC50: Homo sapiens, MCF7, 72 h, MTT assay, 72 h of incubation
Procedure: (§4) Compounds 20–162 were evaluated in vitro for their effects on the viability of three cancer cell lines: HCT-116 (colon cancer), MCF-7 (breast cancer) and HeLa (cervical cancer), as well as the non-cancerous keratinocyte cell line (HaCaT). […] Analysis was performed using an MTT assay after 72 h of incubation.
as §2
as §3, with “experiments. Cisplatin was used as a positive control.” for “experiments.”

[4] = tested on: HaCaT (human keratinocyte cell line); test: MTT cell viability assay, non-cancerous HaCaT; assay type: cell-based; details: Homo sapiens, HaCaT, 72 h, 72 h of incubation, non-cancerous keratinocytes
Procedure: as §4, §2
as §3, with “experiments. Cisplatin was used as a positive control.” for “experiments.”

IC50 [1] | IC50 [2] | IC50 [3] | SMILES | IC50 [4] | Selectivity Index (SI) HeLa ([1]; IC50 value toward HaCaT cells/IC50 value toward HeLa) | Selectivity Index (SI) HCT-116 ([2]; IC50 value toward HaCaT cells/IC50 value toward HCT-116) | Selectivity Index (SI) MCF-7 ([3]; IC50 value toward HaCaT cells/IC50 value toward MCF-7)
115 ± 7 µM | 110 ± 2 µM | 220 ± 6 µM | Cc1cc(S(=O)(=O)N=C2NCCN2)c(SCc2nc(N)nc(N(C)C)n2)cc1Cl [Compound 20] |  |  |  | 
510 ± 5 µM | 350 ± 7 µM | 190 ± 2 µM | Cc1cc(S(=O)(=O)N=C2NCCN2)c(SCc2nc(N)nc(N3CCOCC3)n2)cc1Cl [Compound 21] |  |  |  | 
110 ± 4 µM | 140 ± 3 µM | 130 ± 4 µM | CC1=NN(c2nc(N)nc(CSc3cc(Cl)c(C)cc3S(=O)(=O)N=C3NCCN3)n2)C(C)(C)C1 [Compound 22] |  |  |  | 
150 ± 2 µM | 142 ± 4 µM | 130 ± 3 µM | Cc1cc(S(=O)(=O)N=C2NCCN2)c(SCc2nc(N)nc(N3CCc4ccccc43)n2)cc1Cl [Compound 23] |  |  |  | 
22 ± 0.2 µM | 20 ± 0.4 µM | 27 ± 0.3 µM | Cc1cc(S(=O)(=O)N=C2NCCN2)c(SCc2nc(N)nc(N3CCCc4ccccc43)n2)cc1Cl [Compound 24] | 41 ± 1 µM |  |  | 
46 ± 2 µM | 45 ± 2 µM | 46 ± 2 µM | Cc1cc(S(=O)(=O)N=C2NCCN2)c(SCc2nc(N)nc(Nc3ccccc3)n2)cc1Cl [Compound 25] | 54 ± 2 µM |  |  | 
34 ± 1 µM | 33 ± 2 µM | 33 ± 1 µM | Cc1cc(S(=O)(=O)N=C2NCCN2)c(SCc2nc(N)nc(Nc3ccc(F)cc3)n2)cc1Cl [Compound 26] | 45 ± 2 µM |  |  | 
74 ± 2 µM | 39 ± 2 µM | 44 ± 1 µM | Cc1cc(S(=O)(=O)N=C2NCCN2)c(SCc2nc(N)nc(NCc3ccccc3)n2)cc1Cl [Compound 27] | 75 ± 3 µM |  |  | 
80 ± 1 µM | 58 ± 0.6 µM | 45 ± 0.5 µM | Cc1cc(S(=O)(=O)N=C2NCCN2)c(SCc2nc(N)nc(N(C)c3ccccc3)n2)cc1Cl [Compound 28] |  |  |  | 
32 ± 0.3 µM | 25 ± 0.5 µM | 24 ± 0.2 µM | Cc1cc(S(=O)(=O)N=C2NCCN2)c(SCc2nc(N)nc(N(C)c3ccc(Cl)cc3)n2)cc1Cl [Compound 29] | 43 ± 2 µM |  |  | 
16 ± 0.1 µM |  |  | Cc1cc(S(=O)(=O)N=C2NCCN2)c(SCc2nc(N)nc(N3CCN(c4ccccc4)CC3)n2)cc1Cl [Compound 31] | 26 ± 1 µM |  |  | 
14 ± 0.5 µM | 14 ± 0.5 µM | 16 ± 0.5 µM | Cc1cc(S(=O)(=O)N=C2NCCN2)c(SCc2nc(N)nc(N3CCN(c4ccc(F)cc4)CC3)n2)cc1Cl [Compound 32] | 28 ± 1 µM |  |  | 
25 ± 1 µM | 19 ± 0.5 µM | 26 ± 1 µM | Cc1cc(S(=O)(=O)N=C2NCCN2)c(SCc2nc(N)nc(N3CCN(c4ccccc4F)CC3)n2)cc1Cl [Compound 33] | 41 ± 2 µM |  |  | 
24 ± 2 µM | 18 ± 1 µM | 12 ± 0.5 µM | Cc1cc(S(=O)(=O)N=C2NCCN2)c(SCc2nc(N)nc(N3CCN(c4ccc(C(F)(F)F)cc4)CC3)n2)cc1Cl [Compound 34] | 41 ± 1 µM |  |  | 
16 ± 1 µM | 14 ± 0.7 µM | 16 ± 1 µM | Cc1cc(S(=O)(=O)N=C2NCCN2)c(SCc2nc(N)nc(N3CCN(c4cccc(C(F)(F)F)c4)CC3)n2)cc1Cl [Compound 35] | 32 ± 2 µM |  |  | 
12 ± 0.1 µM | 12 ± 0.1 µM | 13 ± 0.1 µM | Cc1cc(S(=O)(=O)N=C2NCCN2)c(SCc2nc(N)nc(N3CCN(c4ccc(Cl)cc4)CC3)n2)cc1Cl [Compound 36] | 28 ± 1 µM |  |  | 
24 ± 1 µM | 18 ± 0.5 µM | 19 ± 1 µM | Cc1cc(S(=O)(=O)N=C2NCCN2)c(SCc2nc(N)nc(N3CCN(c4cccc(Cl)c4)CC3)n2)cc1Cl [Compound 37] | 37 ± 2 µM |  |  | 
19 ± 1 µM | 15 ± 0.5 µM | 28 ± 1 µM | Cc1cc(S(=O)(=O)N=C2NCCN2)c(SCc2nc(N)nc(N3CCN(c4ccc(Cl)c(Cl)c4)CC3)n2)cc1Cl [Compound 38] | 35 ± 1 µM |  |  | 
18 ± 1 µM | 15 ± 1 µM | 17 ± 1 µM | Cc1cc(S(=O)(=O)N=C2NCCN2)c(SCc2nc(N)nc(N3CCN(c4ccc(F)c(Cl)c4)CC3)n2)cc1Cl [Compound 39] | 37 ± 2 µM |  |  | 

IC50 [1] | IC50 [2] | IC50 [3] | SMILES | IC50 [4] | Selectivity Index (SI) HeLa ([1]; IC50 value toward HaCaT cells/IC50 value toward HeLa) | Selectivity Index (SI) HCT-116 ([2]; IC50 value toward HaCaT cells/IC50 value toward HCT-116) | Selectivity Index (SI) MCF-7 ([3]; IC50 value toward HaCaT cells/IC50 value toward MCF-7)
23 ± 1 µM | 21 ± 0.5 µM | 28 ± 2 µM | COc1ccc(N2CCN(c3nc(N)nc(CSc4cc(Cl)c(C)cc4S(=O)(=O)N=C4NCCN4)n3)CC2)cc1 [Compound 40] | 45 ± 3 µM |  |  | 
39 ± 2 µM | 21 ± 1 µM | 46 ± 1 µM | COc1ccccc1N1CCN(c2nc(N)nc(CSc3cc(Cl)c(C)cc3S(=O)(=O)N=C3NCCN3)n2)CC1 [Compound 41] | 51 ± 3 µM |  |  | 
30 ± 1.5 µM | 31 ± 1 µM | 31 ± 2 µM | Cc1cc(S(=O)(=O)N=C2NCCN2)c(SCc2nc(N)nc(N3CCN(Cc4ccccc4)CC3)n2)cc1Cl [Compound 42] | 61 ± 4 µM |  |  | 
19 ± 0.5 µM | 17 ± 1 µM | 22 ± 0.5 µM | Cc1cc(S(=O)(=O)N=C2NCCN2)c(SCc2nc(N)nc(N3CCC(Cc4ccccc4)CC3)n2)cc1Cl [Compound 43] | 43 ± 2 µM |  |  | 
14 ± 0.5 µM | 14 ± 0.5 µM | 16 ± 0.5 µM | Cc1cc(S(=O)(=O)N=C2NCCN2)c(SCc2nc(N)nc(N3CC=C(c4ccc(F)cc4)CC3)n2)cc1Cl [Compound 44] | 28 ± 1 µM |  |  | 
34 ± 1 µM | 19 ± 0.4 µM | 22 ± 0.2 µM | Cc1cc(S(=O)(=O)N=C2NCCN2Cc2ccccc2)c(SCc2nc(N)nc(N(C)C)n2)cc1Cl [Compound 45] | 43 ± 2 µM |  |  | 
37 ± 0.4 µM | 21 ± 0.2 µM | 23 ± 0.7 µM | Cc1cc(S(=O)(=O)N=C2NCCN2Cc2ccccc2)c(SCc2nc(N)nc(N3CCOCC3)n2)cc1Cl [Compound 46] |  |  |  | 
34 ± 0.3 µM | 19 ± 0.2 µM | 20 ± 0.4 µM | CC1=NN(c2nc(N)nc(CSc3cc(Cl)c(C)cc3S(=O)(=O)N=C3NCCN3Cc3ccccc3)n2)C(C)(C)C1 [Compound 47] | 45 ± 2 µM |  |  | 
24 ± 0.5 µM | 14 ± 0.1 µM | 17 ± 0.3 µM | Cc1cc(S(=O)(=O)N=C2NCCN2Cc2ccccc2)c(SCc2nc(N)nc(N3CCCc4ccccc43)n2)cc1Cl [Compound 49] | 38 ± 1 µM |  |  | 
35 ± 2 µM | 18 ± 0.2 µM | 43 ± 1 µM | Cc1cc(S(=O)(=O)N=C2NCCN2Cc2ccccc2)c(SCc2nc(N)nc(Nc3ccccc3)n2)cc1Cl [Compound 50] | 51 ± 2 µM |  |  | 
15 ± 1 µM | 19 ± 0.6 µM | 10 ± 0.5 µM | Cc1cc(S(=O)(=O)N=C2NCCN2Cc2ccccc2)c(SCc2nc(N)nc(Nc3ccc(C(F)(F)F)cc3)n2)cc1Cl [Compound 51] | 220 ± 12 µM |  |  | 
61 ± 2 µM | 37 ± 0.5 µM | 64 ± 2 µM | COc1ccc(Nc2nc(N)nc(CSc3cc(Cl)c(C)cc3S(=O)(=O)N=C3NCCN3Cc3ccccc3)n2)cc1 [Compound 52] | 92 ± 3 µM |  |  | 
85 ± 2 µM | 10 ± 0.5 µM | 11 ± 0.5 µM | Cc1cc(S(=O)(=O)N=C2NCCN2Cc2ccccc2)c(SCc2nc(N)nc(NCc3ccccc3)n2)cc1Cl [Compound 53] | 81 ± 4 µM |  |  | 
16 ± 0.2 µM | 11 ± 0.1 µM | 12 ± 0.1 µM | Cc1cc(S(=O)(=O)N=C2NCCN2Cc2ccccc2)c(SCc2nc(N)nc(N(C)c3ccccc3)n2)cc1Cl [Compound 54] | 28 ± 1 µM |  |  | 
13 ± 0.1 µM | 7 ± 0.1 µM | 10 ± 0.2 µM | Cc1cc(S(=O)(=O)N=C2NCCN2Cc2ccccc2)c(SCc2nc(N)nc(N(C)c3ccc(Cl)cc3)n2)cc1Cl [Compound 55] | 39 ± 2 µM | 3.0 | 5.5 | 3.9
37 ± 1 µM | 22 ± 1 µM | 54 ± 1 µM | Cc1cc(S(=O)(=O)N=C2NCCN2Cc2ccccc2)c(SCc2nc(N)nc(N3CCN(C)CC3)n2)cc1Cl [Compound 56] | 58 ± 2 µM |  |  | 
88 ± 3 µM | 94 ± 2 µM | 98 ± 5 µM | Cc1cc(S(=O)(=O)N=C2NCCN2Cc2cccc3ccccc23)c(SCc2nc(N)nc(N3CCN(c4ccc(Cl)cc4)CC3)n2)cc1Cl [Compound 79] |  |  |  | 
98 ± 5 µM | 79 ± 2 µM | 89 ± 4 µM | Cc1cc(S(=O)(=O)N=C2NCCN2Cc2cccc3ccccc23)c(SCc2nc(N)nc(N3CCN(c4ccc(Cl)c(Cl)c4)CC3)n2)cc1Cl [Compound 80] |  |  |  | 

From paper PMC9267128, “New 2-[(4-Amino-6-N-substituted-1,3,5-triazin-2-yl)methylthio]-N-(imidazolidin-2-ylidene)-4-chloro-5-methylbenzenesulfonamide Derivatives, Design, Synthesis and Anticancer Evaluation” (International Journal of Molecular Sciences, 2022)
